Source: US12077503B2, “Substituted cyclic amides and their use as herbicides” (FMC CORPORATION, priority 2015, dated 2024)

Assays:
Type in all cases: in vivo
[1] = tested on: barnyardgrass (Echinochloa crus-galli); assay: Test G Pre-Emergence Protocol; details: Echinochloa crus-galli, pre-emergence, 312 h, evaluated after 13 days; for pest or weed control at 15.625 g/ha: 15.625 g ai/ha; for pest or weed control at 15.625 g/ha / pest or weed control at 250 g/ha: read-out: Barnyardgrass damage rating (100=total damage to plant; 0=no damage to plant); for pest or weed control at 62.5 g/ha: 62.5 g ai/ha, 100=total damage to plant, 0=no damage to plant, read-out: Barnyardgrass damage rating; for pest or weed control at 250 g/ha: 250 g ai/ha
In short: (§1)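 Under a 24/16° C day/night regime with 14 h light and 65% humidity, sown pots were sprayed after one day with compound (15.625, 62.5 or 250 g/ha; 50:50 acetone/water, 0.5% Tween 20). Damage was assessed visually 13 days later, 0 to 100.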

corn (Zea mays) [2] = assay: Test G Pre-Emergence Protocol; details: Zea mays, pre-emergence, 312 h, evaluated after 13 days; for plant injury at 15.625 g/ha: 15.625 g ai/ha; for plant injury at 15.625 g/ha / plant injury at 250 g/ha: read-out: Corn damage rating (100=total damage to plant; 0=no damage to plant); for plant injury at 62.5 g/ha: 62.5 g ai/ha, 100=total damage to plant, 0=no damage to plant, read-out: Corn damage rating; for plant injury at 250 g/ha: 250 g ai/ha
In short: as §1

[3] = tested on: giant foxtail (Setaria faberi); assay: Test G Pre-Emergence Protocol; details: Setaria faberi, pre-emergence, 312 h, evaluated after 13 days; for pest or weed control at 15.625 g/ha: 15.625 g ai/ha; for pest or weed control at 15.625 g/ha / pest or weed control at 250 g/ha: read-out: Foxtail, Giant damage rating (100=total damage to plant; 0=no damage to plant); for pest or weed control at 62.5 g/ha: 62.5 g ai/ha, 100=total damage to plant, 0=no damage to plant, read-out: Foxtail, Giant damage rating; for pest or weed control at 250 g/ha: 250 g ai/ha
In short: as §1

[4] = tested on: ivy-leaved morning glory (Ipomoea hederacea); assay: Test G Pre-Emergence Protocol; details: Ipomoea, pre-emergence, 312 h, evaluated after 13 days; for pest or weed control at 15.625 g/ha: 15.625 g ai/ha; for pest or weed control at 15.625 g/ha / pest or weed control at 250 g/ha: read-out: Morningglory, Ivy-leaved damage rating (100=total damage to plant; 0=no damage to plant); for pest or weed control at 62.5 g/ha: 62.5 g ai/ha, 100=total damage to plant, 0=no damage to plant, read-out: Morningglory, Ivy-leaved damage rating; for pest or weed control at 250 g/ha: 250 g ai/ha
In short: as §1

[5] = tested on: redroot pigweed (Amaranthus retroflexus); assay: Test G Pre-Emergence Protocol; details: Amaranthus retroflexus, pre-emergence, 312 h, evaluated after 13 days; for pest or weed control at 15.625 g/ha: 15.625 g ai/ha; for pest or weed control at 15.625 g/ha / pest or weed control at 250 g/ha: read-out: Pigweed, Redroot damage rating (100=total damage to plant; 0=no damage to plant); for pest or weed control at 62.5 g/ha: 62.5 g ai/ha, 100=total damage to plant, 0=no damage to plant, read-out: Pigweed, Redroot damage rating; for pest or weed control at 250 g/ha: 250 g ai/ha
In short: as §1

[6] = tested on: velvetleaf (Abutilon theophrasti); assay: Test G Pre-Emergence Protocol; details: Abutilon theophrasti, pre-emergence, 312 h, evaluated after 13 days; for pest or weed control at 15.625 g/ha: 15.625 g ai/ha; for pest or weed control at 15.625 g/ha / pest or weed control at 250 g/ha: read-out: Velvetleaf damage rating (100=total damage to plant; 0=no damage to plant); for pest or weed control at 62.5 g/ha: 62.5 g ai/ha, 100=total damage to plant, 0=no damage to plant, read-out: Velvetleaf damage rating; for pest or weed control at 250 g/ha: 250 g ai/ha
In short: as §1

[7] = tested on: barnyardgrass (Echinochloa crus-galli); assay: Test G Post-Emergence Protocol; details: Echinochloa crus-galli, post-emergence, 312 h, read-out: Barnyardgrass damage rating; for pest or weed control at 15.625 g/ha: 15.625 g ai/ha, evaluated after 13 days (100=total damage to plant; 0=no damage to plant); for pest or weed control at 62.5 g/ha: 62.5 g ai/ha; for pest or weed control at 62.5 g/ha / pest or weed control at 250 g/ha: evaluated after 13 days, 100=total damage to plant, 0=no damage to plant; for pest or weed control at 250 g/ha: 250 g ai/ha
In short: (§2)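 Sow in soil; grow 8 d (24/16 °C, 14 h light, 65% humidity); spray 15.625/62.5/250 g/ha in acetone:water 50:50 + 0.5% Tween 20; grow on, water twice daily; score damage 0–100 at 13 d.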

corn (Zea mays) [8] = assay: Test G Post-Emergence Protocol; details: Zea mays, post-emergence, 312 h, read-out: Corn damage rating; for plant injury at 15.625 g/ha: 15.625 g ai/ha, evaluated after 13 days (100=total damage to plant; 0=no damage to plant); for plant injury at 62.5 g/ha: 62.5 g ai/ha; for plant injury at 62.5 g/ha / plant injury at 250 g/ha: evaluated after 13 days, 100=total damage to plant, 0=no damage to plant; for plant injury at 250 g/ha: 250 g ai/ha
In short: as §2

[9] = tested on: giant foxtail (Setaria faberi); assay: Test G Post-Emergence Protocol; details: Setaria faberi, post-emergence, 312 h, read-out: Foxtail, Giant damage rating; for pest or weed control at 15.625 g/ha: 15.625 g ai/ha, evaluated after 13 days (100=total damage to plant; 0=no damage to plant); for pest or weed control at 62.5 g/ha: 62.5 g ai/ha; for pest or weed control at 62.5 g/ha / pest or weed control at 250 g/ha: evaluated after 13 days, 100=total damage to plant, 0=no damage to plant; for pest or weed control at 250 g/ha: 250 g ai/ha
In short: as §2

[10] = tested on: ivy-leaved morning glory (Ipomoea hederacea); assay: Test G Post-Emergence Protocol; details: Ipomoea, post-emergence, 312 h, read-out: Morningglory, Ivy-leaved damage rating; for pest or weed control at 15.625 g/ha: 15.625 g ai/ha, evaluated after 13 days (100=total damage to plant; 0=no damage to plant); for pest or weed control at 62.5 g/ha: 62.5 g ai/ha; for pest or weed control at 62.5 g/ha / pest or weed control at 250 g/ha: evaluated after 13 days, 100=total damage to plant, 0=no damage to plant; for pest or weed control at 250 g/ha: 250 g ai/ha
In short: as §2

[11] = tested on: redroot pigweed (Amaranthus retroflexus); assay: Test G Post-Emergence Protocol; details: Amaranthus retroflexus, post-emergence, 312 h, read-out: Pigweed, Redroot damage rating; for pest or weed control at 15.625 g/ha: 15.625 g ai/ha, evaluated after 13 days (100=total damage to plant; 0=no damage to plant); for pest or weed control at 62.5 g/ha: 62.5 g ai/ha; for pest or weed control at 62.5 g/ha / pest or weed control at 250 g/ha: evaluated after 13 days, 100=total damage to plant, 0=no damage to plant; for pest or weed control at 250 g/ha: 250 g ai/ha
In short: as §2

[12] = tested on: velvetleaf (Abutilon theophrasti); assay: Test G Post-Emergence Protocol; details: Abutilon theophrasti, post-emergence, 312 h, read-out: Velvetleaf damage rating; for pest or weed control at 15.625 g/ha: 15.625 g ai/ha, evaluated after 13 days (100=total damage to plant; 0=no damage to plant); for pest or weed control at 62.5 g/ha: 62.5 g ai/ha; for pest or weed control at 62.5 g/ha / pest or weed control at 250 g/ha: evaluated after 13 days, 100=total damage to plant, 0=no damage to plant; for pest or weed control at 250 g/ha: 250 g ai/ha
In short: as §2

Compound | pest or weed control at 15.625 g/ha [1] | pest or weed control at 62.5 g/ha [1] | pest or weed control at 250 g/ha [1] | plant injury at 15.625 g/ha (corn (Zea mays) [2]) | plant injury at 62.5 g/ha (corn (Zea mays) [2]) | plant injury at 250 g/ha (corn (Zea mays) [2]) | pest or weed control at 15.625 g/ha [3] | pest or weed control at 62.5 g/ha [3] | pest or weed control at 250 g/ha [3] | pest or weed control at 15.625 g/ha [4] | pest or weed control at 62.5 g/ha [4] | pest or weed control at 250 g/ha [4] | pest or weed control at 15.625 g/ha [5] | pest or weed control at 62.5 g/ha [5] | pest or weed control at 250 g/ha [5] | pest or weed control at 15.625 g/ha [6] | pest or weed control at 62.5 g/ha [6] | pest or weed control at 250 g/ha [6] | pest or weed control at 15.625 g/ha [7] | pest or weed control at 62.5 g/ha [7] | also measured
CSc1ccncc1NC(=O)[C@H]1C(=O)N(C)C[C@@H]1c1cccc(C(F)(F)F)c1 (racemic) [Compound 1750] | 0% | 10% | 10% | 0% | 0% | 10% | 0% | 20% | 70% | 0% | 0% | 0% | 0% | 0% | 0% | 0% | 0% | 0% | 0% | 0% | pest or weed control at 250 g/ha [7]: 20%; plant injury at 15.625 g/ha (corn (Zea mays) [8]): 0%; plant injury at 62.5 g/ha (corn (Zea mays) [8]): 10%; plant injury at 250 g/ha (corn (Zea mays) [8]): 10%; pest or weed control at 15.625 g/ha [9]: 0%; pest or weed control at 62.5 g/ha [9]: 0%; pest or weed control at 250 g/ha [9]: 50%; pest or weed control at 15.625 g/ha [10]: 0%; pest or weed control at 62.5 g/ha [10]: 10%; pest or weed control at 250 g/ha [10]: 10%; pest or weed control at 15.625 g/ha [11]: 0%; pest or weed control at 62.5 g/ha [11]: 10%; pest or weed control at 250 g/ha [11]: 20%; pest or weed control at 15.625 g/ha [12]: 0%; pest or weed control at 62.5 g/ha [12]: 0%; pest or weed control at 250 g/ha [12]: 0%
CN1C[C@@H](c2cccc(I)c2)[C@H](C(=O)Nc2cccc(F)c2F)C1=O (racemic) [Compound 1754] | 60% | 80% | 90% | 0% | 0% | 80% | 80% | 90% | 90% | 0% | 0% | 10% | 10% | 20% | 60% | 10% | 0% | 30% | 30% | 70% | pest or weed control at 250 g/ha [7]: 80%; plant injury at 15.625 g/ha (corn (Zea mays) [8]): 10%; plant injury at 62.5 g/ha (corn (Zea mays) [8]): 60%; plant injury at 250 g/ha (corn (Zea mays) [8]): 70%; pest or weed control at 15.625 g/ha [9]: 60%; pest or weed control at 62.5 g/ha [9]: 80%; pest or weed control at 15.625 g/ha [10]: 30%; pest or weed control at 62.5 g/ha [10]: 70%; pest or weed control at 250 g/ha [10]: 70%; pest or weed control at 15.625 g/ha [11]: 0%; pest or weed control at 62.5 g/ha [11]: 40%; pest or weed control at 250 g/ha [11]: 70%; pest or weed control at 15.625 g/ha [12]: 10%; pest or weed control at 62.5 g/ha [12]: 30%; pest or weed control at 250 g/ha [12]: 60%
CN1C[C@H](c2cccc(C(F)(F)F)c2)[C@@H](C(=O)Nc2cnccc2C#N)C1=O (racemic) [Compound 1761] | 0% | 30% | 70% | 0% | 0% | 0% | 0% | 40% | 70% | 0% | 0% | 0% | 0% | 0% | 0% | 0% | 0% | 0% | 0% | 0% | pest or weed control at 250 g/ha [7]: 70%; plant injury at 15.625 g/ha (corn (Zea mays) [8]): 0%; plant injury at 62.5 g/ha (corn (Zea mays) [8]): 0%; plant injury at 250 g/ha (corn (Zea mays) [8]): 0%; pest or weed control at 15.625 g/ha [9]: 0%; pest or weed control at 62.5 g/ha [9]: 0%; pest or weed control at 250 g/ha [9]: 70%; pest or weed control at 15.625 g/ha [10]: 0%; pest or weed control at 62.5 g/ha [10]: 40%; pest or weed control at 250 g/ha [10]: 50%; pest or weed control at 15.625 g/ha [11]: 0%; pest or weed control at 62.5 g/ha [11]: 0%; pest or weed control at 250 g/ha [11]: 10%; pest or weed control at 15.625 g/ha [12]: 0%; pest or weed control at 62.5 g/ha [12]: 0%; pest or weed control at 250 g/ha [12]: 10%
